Entries after “also recorded” stand apart in the source; their conditions may differ.
Tests used:
[1] = test system: RH strain T. gondii tachyzoites; type: in vivo
Description: To evaluate the effectiveness of MQ-1 in treating acute T. gondii infection in vivo, a murine model was employed, utilizing Swiss mice in accordance with established protocols. […] Treatment involved the administration of compounds dissolved in a 4% DMSO solution in water, and was conducted one day post-infection. […] . As for the control group, they were administered 100 µL of the vehicle utilized for MQ-1 dilution, consisting of a 4% DMSO solution in water. Continuous monitoring of the mice included daily assessments for signs of toxoplasmosis. These signs encompassed impaired mobility, feeding difficulties, weight loss, self-mutilation, and severe ascites. […] The implementation of humane endpoints aimed to mitigate any potential pain or suffering in the animals, leading to their euthanasia when necessary. At the end of the experimental period, euthanasia was performed on all remaining mice, and the peritoneal parasite load was estimated using a Neubauer chamber.

[2] = Assay for evaluating mammalian cytotoxicity (MTT); type: cell-based; settings: human, human foreskin fibroblast (HFF) cells, ± SD of three independent experiments, read-out: CC50 (Half Cytotoxic Concentration)
[3] = test system: T. gondii tachyzoites; assay: microbe, parasite or virus in culture; type: cell-based, Toxoplasma gondii; settings: for EC50: Toxoplasma gondii, T. gondii RH-2F1 tachyzoites in HFF, 72 h, ± SD of three independent experiments, read-out: EC50 (Half Effective Concentration); for SI (Selectivity index): CC50 (HFF)/EC50 (T. gondii)
[4] = test system: ME49 strain T. gondii; assay: Chronic toxoplasmosis model, ME49-infected C57BL/6 mice
Description: Male Swiss mice (Mus musculus) (8 weeks old) for the acute toxoplasmosis experiments and female C57BL/6 mice (4 weeks old) for the chronic toxoplasmosis experiments were sourced from the animal breeding facility at the Universidade Federal de Alfenas, Brazil. Strict adherence to the principles of good animal practice, as outlined in the Brazilian Guidelines for Care and Utilization of Animals by the Conselho Nacional de Controle e Experimentação Animal (CONCEA), was observed during the handling of all animals. The study protocol received approval from the Ethics Committee for Animal Experimentation at the Universidade Federal de Alfenas under Protocols 033/2021 and 0006/2023. All necessary precautions were taken to minimize any potential suffering experienced by the animals.
The mice were infected with 10 cysts of the ME49 strain of T. gondii via intraperitoneal inoculation, following the protocol by [16]. After a 40-day infection period, random assignment was used to divide the mice into distinct experimental groups, each consisting of four mice. These experimental groups were subjected to different treatments: MQ-1, administered either at a dosage of 25 mg/kg/day or 12.5 mg/kg/day, prepared with a 4% DMSO solution in water. […] The administration was carried out via oral gavage, with a final volume of 100 µL per dose. For the control group, 100 µL of the vehicle used to dilute MQ-1 (4% DMSO in water) was administered. […] On the 51st day post-infection, euthanasia was performed for all animals, followed by brain tissue collection for RNA extraction and quantification, as detailed in [18]. DNA extraction and purification were carried out using the PureLink Genomic DNA Minikit (Invitrogen. Carlsbad, CA, USA) following the manufacturer’s instructions. […] After extraction, RNA samples were immediately processed for cDNA synthesis and underwent quantitative real-time (qPCR) analysis. […]
Data on parasite burden in acute and chronic infection in treated and untreated groups were analyzed for statistical significance using One-Way ANOVA, followed by the Tukey post-test. […]

[5] = vs pyrimethamine 12.5 mg/kg/day

Row | Structure (SMILES) | signs of toxicity throughout the treatment ([1]; Swiss mice, 12.5 mg/kg/day oral for 8 days) | difference between the tested compound and the standard drug, acute evaluation [1, 5] | CC50 at 72 h [2] | EC50 [3] | cerebral parasitic load vs vehicle ([4]; C57BL/6 mice, ME49 strain, 25 mg/kg/day oral for 10 consecutive days from day 41 post-infection, qPCR, p < 0.01, 25 mg/kg/day) | difference between the tested compound and the standard drug, chronic evaluation [4, 5] | SI (Selectivity index) [3]
1 | COc1ccc2c(c1)nc(-c1c[nH]c3ccccc13)c1[nH]ccc12 [MQ-1] | No signs of toxicity were observed | no statistically significant differences | 30.5 ± 1.8 µM | 1.46 ± 0.45 µM | significantly reduced; also recorded: significant (p < 0.01) reduction | no statistically significant differences | 
2 | COc1ccc2c(c1)nc(-c1ccc(N3CCNCC3)cc1)c1[nH]ccc12 [MQ-2] |  |  | 29.1 ± 0.84 µM | 1.67 ± 0.4 µM |  |  | 17.39
3 | CC(C)(C)OC(=O)Nc1ccc(-c2nc3ccc(Cl)cc3c3cc[nH]c23)cc1 [MQ-3] |  |  | 5.36 ± 0.91 µM | 1.6 ± 0.54 µM |  |  | 3.35
4 | CC(C)(C)OC(=O)Nc1ccc(-c2nc3ccc(OC(F)(F)F)cc3c3cc[nH]c23)cc1 [MQ-4] |  |  | 4.16 ± 1.05 µM | 1.31 ± 0.31 µM |  |  | 3.18
5 | COc1ccc2c(c1)nc(-c1ccc(N3CCC(F)CC3)cc1)c1[nH]ccc12 [MQ-5] |  |  | 5.05 ± 1.63 µM | 1.43 ± 0.37 µM |  |  | 3.52
6 | COc1ccc2c(c1)nc(-c1ccc(Br)cn1)c1[nH]ccc12 [MQ-6] |  |  | 28.6 ± 7.33 µM | 3.78 ± 0.67 µM |  |  | 7.55
7 | CCc1nc(N)nc(N)c1-c1ccc(Cl)cc1 [PYR, pyrimethamine, reference compound] |  |  | 68.1 ± 4.26 µM | 0.29 ± 0.19 µM |  |  | 

From PMC10891983, “First Description of Marinoquinoline Derivatives’ Activity against Toxoplasma gondii” (Pharmaceutics, 2024)
